One data set has as its target hERG K+ channel (Homo sapiens, UniProt Q12809). The experiment in a line: Inhibition of the hERG K+ channel, electrophysiology. In general terms: hERG is a cardiac potassium channel; its block is linked to QT prolongation.
The target in another data set is Mt-DprE1 (Mycobacterium tuberculosis, UniProt P9WJF1). Format: biochemical, M. tuberculosis.
In the next data set the test system is Vero cells. Kind of data set: Cytotoxicity assay in Vero cells (MTT). Format: cell-based. The settings on record: Chlorocebus sabaeus; Vero cells, 48 h; read-out: IC50 (Vero).
The nature of data set [1]: Hepatocyte stability assay, mouse. The conditions noted are these: male, mouse hepatocytes.
Data set [2] is described as follows: Cytotoxicity assay in HepG2 cells (MTT). The settings on record: human.
Data set [3] can be described thus: Hepatocyte stability assay, human. The settings on record: human hepatocytes.
The test system of data set [4] is M. tuberculosis (H37Rv) in infected mouse J774A.1 macrophages. Format: cell-based.
Another data set has as its system M. tuberculosis H37Rv. The experiment in a line: MIC against replicating M. tuberculosis H37Rv, microplate Alamar blue assay (MABA). Format: cell-based. The conditions noted are these: for MIC: Mycobacterium tuberculosis, H37RV.
The nature of data set [5]: Pharmacokinetic studies in Balb/c mice. The settings on record: male, Balb/c, mouse, in vivo.
Where [6] appears, read: against M. tuberculosis H37Rv, Tables 1-3, read-out: MIC.
The mark [7] stands for this setting: supplementary CSV, same values as Tables 1-3, read-out: Minimal inhibit concentration.

In brackets after ≈: the same amount, converted by molar mass. Several values for one entry are separate records, joined by “and”; a condition that tells them apart may be missing. Equal entries are not always repeated. Where two headings read alike, the source gives them in different places.

A word on the IC50: it is the midpoint of a concentration-inhibition curve. As usually defined, the half-life is how long it takes for the measured level to halve. Higher therefore signals slow loss. Broadly, the share remaining is the share of the starting amount still present when the sample was taken. A word on the melting point: it is the temperature, or range, at which the solid turns liquid. As usually defined, the AUC(0-inf) is total exposure, with the tail of the curve extrapolated. A low value points to less exposure. One may read the AUC(0-t) as the area under the concentration-time curve up to a stated or last time point. For orientation: Cmax means the maximum level reached in the sampled fluid or tissue. One may read the MRT inf as the average time that molecules of a dose stay in the body. In general, clearance refers to the rate of elimination divided by the concentration. The low end stands for inefficient removal, the high end for efficient removal. One may read the Tmax as the time from dosing to the highest level. Broadly, the bioavailability is dose-corrected exposure relative to a reference, in per cent.

Sequence of hERG K+ channel (Q12809 whole entry): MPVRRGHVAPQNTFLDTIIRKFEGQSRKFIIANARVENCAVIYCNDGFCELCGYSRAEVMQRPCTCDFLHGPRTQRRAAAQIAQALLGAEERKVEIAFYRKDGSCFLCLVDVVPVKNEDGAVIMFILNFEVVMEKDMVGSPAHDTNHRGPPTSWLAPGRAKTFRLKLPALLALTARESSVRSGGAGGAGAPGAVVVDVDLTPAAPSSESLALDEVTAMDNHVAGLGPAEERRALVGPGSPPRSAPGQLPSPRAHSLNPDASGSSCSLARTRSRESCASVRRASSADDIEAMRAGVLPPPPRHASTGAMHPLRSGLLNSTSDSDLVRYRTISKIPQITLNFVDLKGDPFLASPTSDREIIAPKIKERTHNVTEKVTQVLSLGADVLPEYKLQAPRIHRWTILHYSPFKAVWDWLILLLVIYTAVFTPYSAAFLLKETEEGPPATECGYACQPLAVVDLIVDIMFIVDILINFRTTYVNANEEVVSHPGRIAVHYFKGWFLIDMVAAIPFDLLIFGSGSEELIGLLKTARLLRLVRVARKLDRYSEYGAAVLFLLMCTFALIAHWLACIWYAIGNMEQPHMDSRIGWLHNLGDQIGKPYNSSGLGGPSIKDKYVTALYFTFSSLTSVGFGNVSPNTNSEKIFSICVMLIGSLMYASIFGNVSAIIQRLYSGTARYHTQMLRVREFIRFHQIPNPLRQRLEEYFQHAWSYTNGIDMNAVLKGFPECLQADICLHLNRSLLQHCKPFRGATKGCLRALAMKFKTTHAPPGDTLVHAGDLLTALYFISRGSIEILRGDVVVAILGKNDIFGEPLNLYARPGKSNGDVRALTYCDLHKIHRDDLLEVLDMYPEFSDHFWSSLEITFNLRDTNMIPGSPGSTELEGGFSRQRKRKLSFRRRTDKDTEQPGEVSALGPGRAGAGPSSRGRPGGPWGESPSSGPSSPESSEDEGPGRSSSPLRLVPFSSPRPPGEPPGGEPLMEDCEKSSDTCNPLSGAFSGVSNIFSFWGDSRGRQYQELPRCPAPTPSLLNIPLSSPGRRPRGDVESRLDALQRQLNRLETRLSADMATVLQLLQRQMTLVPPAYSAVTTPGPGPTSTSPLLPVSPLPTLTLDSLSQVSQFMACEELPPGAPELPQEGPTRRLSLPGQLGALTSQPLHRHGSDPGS
Sequence of Mt-DprE1 (P9WJF1 whole entry, looked up): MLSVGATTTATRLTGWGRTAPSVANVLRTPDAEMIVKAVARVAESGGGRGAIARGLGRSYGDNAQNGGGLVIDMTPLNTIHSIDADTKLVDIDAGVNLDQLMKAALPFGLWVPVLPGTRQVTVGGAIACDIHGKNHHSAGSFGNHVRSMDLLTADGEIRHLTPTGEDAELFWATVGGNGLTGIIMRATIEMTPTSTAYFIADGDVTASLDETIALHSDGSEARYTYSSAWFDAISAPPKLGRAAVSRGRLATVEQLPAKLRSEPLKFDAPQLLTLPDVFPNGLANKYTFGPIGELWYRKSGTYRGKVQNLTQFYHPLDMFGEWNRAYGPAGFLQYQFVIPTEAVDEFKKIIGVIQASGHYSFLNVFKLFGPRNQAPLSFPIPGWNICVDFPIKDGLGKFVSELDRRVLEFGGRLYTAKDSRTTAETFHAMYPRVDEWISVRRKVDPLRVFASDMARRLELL

Regarding `CCOC(=O)NC(=O)c1ccsc1NC(=O)c1ccc(C(=O)N2CCCCC2)cc1` [Compound 23j, Ethyl (2-(4-(Piperidine-1-carbonyl)benzamido)thiophene-3-carbonyl)carbamate], the results for the half-maximal inhibitory concentration (IC50) against hERG K+ channel and in the data set on Vero cells were 23.7 µM and more than 64 µg/mL, respectively. For the same compound, the “IC50 DprE1” value on Mt-DprE1 was 0.3 ± 0.1 µg/mL (≈ 0.698 µM). The half-life at 1 µM in data set [1] was determined as 56.4 min; in data set [3], 50.8 min. Further, the figures for the fraction remaining at 0.5 h, 1 µM in data set [1] and in data set [3] were 69.1% and 66.4%, respectively. The compound also showed an IC50 at 48 h in data set [2] of more than 64 µg/mL. The “log10 CFU/macrophages” value in data set [4] is 4.45 ± 0.03 log10 CFU and 4.54 ± 0.01 log10 CFU. Besides, in data set [4], the “Δlog10 CFU” value is 1.07 log10 CFU and 0.98 log10 CFU. The MIC in the data set on M. tuberculosis H37Rv (setting [6]) and in the data set on M. tuberculosis H37Rv (setting [7]) was 0.02 µg/mL (≈ 0.0466 µM) throughout.

Regarding `COC(=O)NC(=O)c1ccsc1NC(=O)c1ccc(C(=O)N2CCCCC2)c(F)c1` [Compound 25b, Methyl (2-(3-Fluoro-4-(piperidine-1-carbonyl)benzamido)thiophene-3-carbonyl)carbamate], the half-maximal inhibitory concentration (IC50) at hERG K+ channel was more than 30 µM; in the data set with Vero cells, more than 64 µg/mL. The “IC50 DprE1” value against Mt-DprE1 is 0.4 ± 0.1 µg/mL (≈ 0.923 µM). Besides, the half-life at 1 µM in data set [1] worked out at 12.5 min; in data set [3], 32.6 min. In addition, the amount remaining at 0.5 h, 1 µM in data set [1] stood at 19%; in [3] it was 52.8%. This compound also displayed an IC50 at 48 h in data set [2] of more than 64 µg/mL. In [4], the “log10 CFU/macrophages” value was 4.59 ± 0.05 log10 CFU and 4.75 ± 0.21 log10 CFU. For the same compound, in data set [4], the “Δlog10 CFU” value is 0.93 log10 CFU and 0.77 log10 CFU. Further, the “MIC H37Rv” value in the data set on M. tuberculosis H37Rv (Table 4) amounted to 0.030 µg/mL (≈ 0.0692 µM). The MIC in the data set with M. tuberculosis H37Rv (setting [6]) is 0.03 µg/mL (≈ 0.0692 µM); in the data set with M. tuberculosis H37Rv (setting [7]), 0.03 µg/mL (≈ 0.0692 µM); in the data set on M. tuberculosis H37Rv (Table 4, read-out: MIC H37Rv), 0.02 to 0.12 µg/mL (≈ 0.0461 to 0.277 µM).

In turn, `CCOC(=O)NC(=O)c1ccsc1NC(=O)c1ccc(C(=O)N2CCCCC2)c(F)c1` [Compound 24f, Ethyl (2-(3-Fluoro-4-(piperidine-1-carbonyl)benzamido)thiophene-3-carbonyl)carbamate] came in with a melting point of 186 to 187 °C. The compound also gave an IC50 against hERG K+ channel of more than 30 µM. At Mt-DprE1, the “IC50 DprE1” value was determined as 0.2 ± 0.04 µg/mL (≈ 0.447 µM). Moreover, in the data set with Vero cells, the 50% inhibitory concentration (IC50) is more than 64 µg/mL. In data set [1], this compound yielded a half-life at 1 µM of 43.7 min and an amount remaining at 0.5 h, 1 µM of 62.1%. The same compound had a half-inhibitory concentration (IC50) at 48 h in data set [2] of more than 64 µg/mL. In data set [3], this compound came in with a half-life at 1 µM of 38.1 min and an amount remaining at 0.5 h, 1 µM of 58%. Moreover, the “log10 CFU/macrophages” value in [4] is 4.18 ± 0.04 log10 CFU and 4.41 ± 0.10 log10 CFU. In the data set on M. tuberculosis H37Rv (Table 4), the “MIC H37Rv” value was determined as 0.020 µg/mL (≈ 0.0447 µM). The MIC in the data set on M. tuberculosis H37Rv (against M. tuberculosis H37Rv, Tables 1-3) is less than 0.016 µg/mL. Also, the MIC in the data set on M. tuberculosis H37Rv (setting [7]) is less than 0.016 µg/mL. The MIC with M. tuberculosis H37Rv (Table 4, read-out: MIC H37Rv) fell in the range of 0.02 to 0.12 µg/mL (≈ 0.0447 to 0.268 µM). In data set [5] (iv, 5 mg/kg), this compound displayed an area under the curve AUC(0-inf) at 24 h of 184 ng·h/mL, an AUC(0-t) at 24 h of 183 ng·h/mL, a Cmax at 24 h of 1300 ng/mL and a mean residence time MRT inf at 24 h of 7.8 min. In data set [5] (iv, 5 mg/kg), this compound gave a clearance at 24 h of 479 mL/min/kg and a half-life at 24 h of 7.8 min. In [5] (po, 50 mg/kg), this compound gave an AUC(0-inf) at 24 h of 57.9 ng·h/mL, an exposure AUC(0-t) at 24 h of 41.9 ng·h/mL, a maximum concentration (Cmax) at 24 h of 25.4 ng/mL and an MRT inf at 24 h of 126 min. For the same compound, in [5] (po, 50 mg/kg), the Tmax at 24 h turned out to be 60 min, the bioavailability at 24 h worked out at 2.3% and the half-life at 24 h was 102 min.

Source of the values: paper PMC8154581, “Discovery of Novel Thiophene-arylamide Derivatives as DprE1 Inhibitors with Potent Antimycobacterial Activities” (Journal of Medicinal Chemistry, 2021).
